# Measured values published in US5234932A, “Substituted quinolines and leucotriene antagonism treatment therewith” (Leo Pharmaceutical Products ltd., priority 1989, dated 1993).
# Where a name gives a salt, the structure may show the parent alone.
# How the values were obtained:
# [1] = molecular target: T1, guinea-pig tracheal strips (LTD4) (Cavia porcellus, UniProt Q2NNR5); assay: leukotriene antagonism on guinea-pig tracheal strips (LTD4 concentration-response); format: cell-based; details: negative logarithm of the antagonist dissociation constant, -log([antagonist]/(dose ratio -1)), indomethacin present
# T1 construct: from tissue; host or cells: guinea-pig tracheal strips
# T1 sequence (Q2NNR5 1-340): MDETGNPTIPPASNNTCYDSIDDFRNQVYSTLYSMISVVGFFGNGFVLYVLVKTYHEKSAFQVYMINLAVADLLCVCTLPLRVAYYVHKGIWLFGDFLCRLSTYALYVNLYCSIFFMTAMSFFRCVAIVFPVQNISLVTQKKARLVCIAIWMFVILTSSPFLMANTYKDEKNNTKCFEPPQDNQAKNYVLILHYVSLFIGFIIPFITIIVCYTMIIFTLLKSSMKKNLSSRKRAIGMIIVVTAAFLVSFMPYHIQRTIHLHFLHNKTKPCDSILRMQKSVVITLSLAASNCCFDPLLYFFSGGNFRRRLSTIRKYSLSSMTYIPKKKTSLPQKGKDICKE
# From the text: Leukotriene antagonists may be further characterized using guinea-pig tracheal strips instead of ileum strips (10). In this relevant in vitro model of human airways (11) tracheal strips are suspended in a physiological buffer containing indomethacin. A concentration-response curve to LTD4 is generated in the presence and absence of the leukotriene antagonists. From these curves the potency of a leukotriene antagonist may be expressed as the pKB value, the negative logarithm of the antagonist dissociation constant. The pKB value is determined as -log([antagonist]/(dose ratio -1)), where the dose ratio is defined as EC50 (presence of antagonist)/EC50 (absence of antagonist) and EC50 refers to the concentration of LTD4 eliciting 50% of the maximum response to LTD4 (12).
# LTD4 receptor = molecular target: T2, LTD4 receptor (Cavia porcellus, UniProt Q2NNR5); assay: [3H]LTD4 receptor binding, guinea-pig lung membranes, direct competition assay; details: negative logarithm of the molar concentration inhibiting [3H]LTD4 binding by 50%
# T2 construct: from tissue; host or cells: guinea-pig lung membranes
# T2 sequence (Q2NNR5 1-340): T1 sequence (Q2NNR5 1-340)
# From the text: It is of importance to investigate the receptor binding properties of leukotriene antagonists in relation to their pKB values (13), i.e. to correlate antagonist receptor blocking with inhibition of smooth muscle contraction. Receptor binding studies may be performed with guinea-pig lung membranes in a direct competition assay between a leukotriene antagonist and [^3 H]LTD4 for binding to the LTD4 receptor (10,13).
# [2] = test system: guinea-pig ileum strips (LTD4); assay: inhibition of LTD4-induced contraction of guinea-pig ileum strips; format: cell-based; details: LTD4 at 10^-9 M; compound added 2 minutes prior; atropine and indomethacin present
# Description: Leukotriene antagonists may be identified by observing the contractions elicited in preparations of guinea-pig ileum strips suspended in a physiological buffer by addition of pure leukotriene D4 (LTD4) (10). The ileum strips are connected to an isotonic transducer, and the contractions are continuously recorded on a multichannel recorder. Before addition of LTD4, atropine and indomethacin are added to the buffer in order to block any cholinergic or prostaglandin mediated contractile effects. Test compounds to be studied with respect to leukotriene antagonism are dissolved in DMSO and added to the organ bath 2 minutes prior to addition of LTD4 at 10^-9 M (final concentration), the final concentration of DMSO being 0.1%, a concentration which can be shown not to affect the ileum response to LTD4. The test compounds may be added at various concentrations, often beginning at […] and then decreasing the concentration in case of antagonism.
# When the compounds of the present invention were added to the ileum preparation before addition of LTD4 a significant inhibition occurred of the specific LTD4 -induced contraction. […] On other hand, contractions induced with histamine at 10^-7 M were not inhibited by these compounds even at micromolar concentrations.
# 5-lipoxygenase = molecular target: T3, 5-lipoxygenase (Rattus norvegicus, UniProt P12527); assay: 5-lipoxygenase activity in vitro (A23187-stimulated rat peritoneal cells, leukotriene B4 and 5-HETE production); format: cell-based; details: final concentration of 10^-6 M; A23187 2×10^-6 M
# T3 construct: LTB4 and 5-HETE measured by TLC
# T3 sequence (P12527 1-673): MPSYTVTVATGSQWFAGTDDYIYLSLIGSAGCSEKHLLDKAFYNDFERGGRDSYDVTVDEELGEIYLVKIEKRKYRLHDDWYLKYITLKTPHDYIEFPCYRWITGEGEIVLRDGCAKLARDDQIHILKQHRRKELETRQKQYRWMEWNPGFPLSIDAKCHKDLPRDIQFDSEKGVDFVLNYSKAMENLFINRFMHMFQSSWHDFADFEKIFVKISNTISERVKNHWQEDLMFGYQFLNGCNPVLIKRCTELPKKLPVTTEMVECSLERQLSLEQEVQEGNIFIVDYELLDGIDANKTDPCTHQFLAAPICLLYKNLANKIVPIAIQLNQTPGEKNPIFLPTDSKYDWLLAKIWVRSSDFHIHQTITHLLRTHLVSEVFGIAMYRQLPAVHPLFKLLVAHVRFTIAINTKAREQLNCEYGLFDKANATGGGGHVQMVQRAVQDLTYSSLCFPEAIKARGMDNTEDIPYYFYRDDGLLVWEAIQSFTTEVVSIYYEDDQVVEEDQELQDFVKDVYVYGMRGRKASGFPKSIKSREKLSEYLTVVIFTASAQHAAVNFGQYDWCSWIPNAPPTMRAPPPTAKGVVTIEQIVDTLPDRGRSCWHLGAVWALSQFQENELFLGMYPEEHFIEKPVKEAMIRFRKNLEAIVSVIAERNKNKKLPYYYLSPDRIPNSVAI
# Description: The following method was used to assay 5-lipoxygenase activity in vitro: Rat peritoneal cells were harvested by i.p. injection of 10 ml Hank's balanced salt solution (GIBCO, cat No. 4025, U.S.A.) containing 12.5 U/ml sodium heparin (Leo, Denmark) in anaesthesized rats. The resulting cell suspension, which mainly contained macrophages, was transferred to a test tube and washed twice by centrifugation (200 g, 10 min.) and resuspended in Hank's balanced salt solution containing 0.5% bovine serum albumin (BSA) (Sigma Chem. Co., U.S.A.). The cells from 9 rats were finally resuspended in Hank's balanced salt solution (with BSA) containing 5μCi [1-^14 C]arachidonic acid (The Radiochemical Centre, Amersham, U.K.) and incubated for 90 minutes at 37° C. This caused labelling of cell membrane phospholipids as radioactive arachidonic acid was incorporated in the 2-position of the glycerol moiety. Excess arachidonic acid was then removed by washing the cells twice as described above. The cells were finally resuspended in the same solution (without BSA) at 10^7 cells/ml. 475 μl of the cell suspension was preincubated at 37° C. for 5 minutes with either 5 μl dimethylsalphoxide (DMSO) (control tube), or 5 μl of a drug solution in DMSO. Then 20 μl of a mixture of equal volumes of the calcium ionophore A23187, 10^-4 M in ethanol (Calbiochem, U.S.A.), and 0.4M CaCl2 in water was added. The final concentration of A23187 was thus 2×10^-6 M, and of Ca^++ 8 mM. After 5 minutes of incubation the tubes were transferred to an ice-bath and centrifuged for 10 minutes at 3,000 g (4° C.). An aliquot of the supernatant was counted by liquid scintillation spectrometry in order to calculate the total radioactive release induced by A23187 in presence of drugs. A decrease in radioactive release was taken as indication of phospholipase A2 inhibition. The supernatant was then extracted with ethyl acetate (2 ml), adjusted to pH 3 with 1N HCl and further extracted with 2 ml ethyl acetate. The combined extracts were evaporated to dryness in vacuo, the residue was redissolved in a small volume of methanol and applied by means of a Desaga Autospotter™ to a silica-gel coated thin-layer plate fitted with a polar concentrating zone (Merck Art. 11798, Darmstadt, F.R.G.). The plates were developed in the organic layer of the solvent mixture ethyl acetate/acetic acid/iso-octane/water (55:10:25:50). Radioactive spots were detected by autoradiography (AGFA-GEVAERT, Osray-RPI X-ray film, Belgium), and changes induced by drugs in the metabolic pattern of arachidonic acid were quantified by a laser densitometer (LKB, Ultroscan ™2202, Bromma, Sweden) in combination with an integrating computer (SP 4100, Spectra-Physics, San Jose, Calif., U.S.A.). […]
# cyclooxygenase = assay: synthesis of cyclooxygenase products in A23187-stimulated rat peritoneal cells; format: cell-based; details: final concentration of 10^-6 M
# Description: The following method was used to assay 5-lipoxygenase activity in vitro: Rat peritoneal cells were harvested by i.p. injection of 10 ml Hank's balanced salt solution (GIBCO, cat No. 4025, U.S.A.) containing 12.5 U/ml sodium heparin (Leo, Denmark) in anaesthesized rats. The resulting cell suspension, which mainly contained macrophages, was transferred to a test tube and washed twice by centrifugation (200 g, 10 min.) and resuspended in Hank's balanced salt solution containing 0.5% bovine serum albumin (BSA) (Sigma Chem. Co., U.S.A.). The cells from 9 rats were finally resuspended in Hank's balanced salt solution (with BSA) containing 5μCi [1-^14 C]arachidonic acid (The Radiochemical Centre, Amersham, U.K.) and incubated for 90 minutes at 37° C. This caused labelling of cell membrane phospholipids as radioactive arachidonic acid was incorporated in the 2-position of the glycerol moiety. Excess arachidonic acid was then removed by washing the cells twice as described above. The cells were finally resuspended in the same solution (without BSA) at 10^7 cells/ml. 475 μl of the cell suspension was preincubated at 37° C. for 5 minutes with either 5 μl dimethylsalphoxide (DMSO) (control tube), or 5 μl of a drug solution in DMSO. Then 20 μl of a mixture of equal volumes of the calcium ionophore A23187, 10^-4 M in ethanol (Calbiochem, U.S.A.), and 0.4M CaCl2 in water was added. The final concentration of A23187 was thus 2×10^-6 M, and of Ca^++ 8 mM. After 5 minutes of incubation the tubes were transferred to an ice-bath and centrifuged for 10 minutes at 3,000 g (4° C.). An aliquot of the supernatant was counted by liquid scintillation spectrometry in order to calculate the total radioactive release induced by A23187 in presence of drugs. A decrease in radioactive release was taken as indication of phospholipase A2 inhibition. The supernatant was then extracted with ethyl acetate (2 ml), adjusted to pH 3 with 1N HCl and further extracted with 2 ml ethyl acetate. The combined extracts were evaporated to dryness in vacuo, the residue was redissolved in a small volume of methanol and applied by means of a Desaga Autospotter™ to a silica-gel coated thin-layer plate fitted with a polar concentrating zone (Merck Art. 11798, Darmstadt, F.R.G.). The plates were developed in the organic layer of the solvent mixture ethyl acetate/acetic acid/iso-octane/water (55:10:25:50). Radioactive spots were detected by autoradiography (AGFA-GEVAERT, Osray-RPI X-ray film, Belgium), and changes induced by drugs in the metabolic pattern of arachidonic acid were quantified by a laser densitometer (LKB, Ultroscan ™2202, Bromma, Sweden) in combination with an integrating computer (SP 4100, Spectra-Physics, San Jose, Calif., U.S.A.).
# These cells produced measurable amounts of radioactive 6-keto-prostaglandinF1α, thromboxane B2, prostaglandin D2, hydroxyheptadecatrienoic acid (HHT) (all cyclooxygenase products), 5-hydroxyeicosatetraenoic acid (5-HETE) and leukotriene B4 (both 5-lipoxygenase products).
# At the same time, a decrease in synthesis of the cyclooxygenase products HHT, prostaglandin D2, thromboxane B2 and 6-ketoprostaglandin F1α was not observed. This pattern of drug activity is indicative of truly specific 5-lipoxygenase inhibition.
Kb [1] [nM],IC50 (LTD4 receptor) [nM],decrease in the production of 5-HETE (5-lipoxygenase),decrease in the production of leukotriene B4 (5-lipoxygenase),Compound,concentrations at which inhibition of LTD4-induced contraction occurred [2],decrease in synthesis of the cyclooxygenase product 6-ketoprostaglandin F1α (cyclooxygenase),decrease in synthesis of the cyclooxygenase product HHT (cyclooxygenase),decrease in synthesis of the cyclooxygenase product prostaglandin D2 (cyclooxygenase),decrease in synthesis of the cyclooxygenase product thromboxane B2 (cyclooxygenase)
1,15.8,–,–,"O=C(O)C(Nc1cccc(OCc2ccc3ccccc3n2)c1)c1ccccc1 (racemic) [Example 15, (S,R)-2-[3-(2-Quinolylmethyloxy)-anilino]-2-phenyl acetic acid]",–,–,–,–,–
–,–,–,–,"O=C(O)C(Nc1ccc(OCc2ccc3ccccc3n2)cc1)c1ccccc1 (racemic) [Example 17, (S,R)-2-[4-(2-Quinolylmethyloxy)-anilino]-2-phenyl acetic acid]",submicromolar range,–,–,–,–
0.2,2.51,–,–,"O=C(O)[C@H](O)[C@H](Nc1cccc(OCc2ccc3ccccc3n2)c1)c1ccccc1 (relative stereo) [Example 1, (2R,3R;2S,3S)-3-[3-(2-Quinolylmethoxy)-anilino]-2-hydroxy-3-phenyl propionic acid, sodium salt]",–,–,–,–,–
–,–,significant and specific decrease,significant and specific decrease,CCOC(=O)[C@H](O)[C@H](Nc1cccc(OCc2ccc3ccccc3n2)c1)c1cccc(Cl)c1 (relative stereo) [Example 9],–,not observed,not observed,not observed,not observed
–,–,significant and specific decrease,significant and specific decrease,"CCOC(=O)[C@H](O)[C@H](Nc1ccc(OCc2ccc3ccccc3n2)cc1)c1ccccc1 (relative stereo) [Example 11, (2S,3R;2S,3S)-3-[4-(2-Quinolylmethyloxy)-anilino]-2-hydroxy-3-phenyl propionic acid ethyl ester]",–,not observed,not observed,not observed,not observed
